Source: patent US9340563B2, “Salts of isophosphoramide mustard and analogs thereof” (priority 2007, dated 2016)
≈ marks a conversion by molar mass, not a printed value. Where two headings read alike, the source gives them in different places.

Experiments:
[1] = test system: CPA-resistant human sarcoma cells (OS31 osteosarcoma); conditions: mice with xenografts of CPA-resistant human sarcoma cells
Description: CB17 female scid*/* mice (Taconic Farms, Germantown, N.Y.) were implanted with tumor subcutaneous flank tumors. […] For transplantation with OS1 tumor, mice were anesthetized with 4% isoflurane. After a small incision was made in the flank of the mouse, and a 4 mm by 4 mm section of tumor implanted subcutaneously.
When the tumors were approximately 0.20 to 0.7 cm in diameter, tumor-bearing mice were randomized into groups of 5 to 8 mice with 1 treatment group and 1 control group. Treated mice received tasidotin at a dose of 90 mg/kg/day as an intraperitoneal injection daily for 5 days starting on days 1 and 21. Assuming a spherical tumor, the volume was determined by the formula: mm^3=*/6(D)d^2, where D is the maximal diameter and d is the diameter perpendicular to D. Volumes are expressed as relative tumor volumes (RTV) where the tumor volume at any given time point is divided by the starting tumor volume. The RTV for treated and control mice were measured a minimum of once per week.
A partial response is defined as greater than 50% regression in tumor volume (RTV<0.5) but with a measurable tumor mass of greater than 0.10 cm^3. Loss of measurable tumor mass (<0.10 cm^3) at any point during the treatment period (6 weeks) was defined as a complete response (CR). […]

[2] = test system: MX-1 human mammary tumors; test: MX-1 human mammary tumor xenograft (Example 7); format: in vivo, athymic NCr-nu/nu mice
Description: Each concentration was then aliquoted for daily use, frozen, stored at −20° C., and thawed for daily use.
The control groups were treated either ip or po with the vehicle (saline).
Study Duration: The study was terminated 50 days after tumor implantation.

[3] = format: physicochemical; conditions: pH 7 buffer, approximately 25° C.
[4] = format: physicochemical; conditions: temperature and duration of storage
[5] = Solubility and reconstitution time (Example 16); format: physicochemical
pH (Example 16) = format: physicochemical
MX-1 human mammary tumor = MX-1 human mammary tumor xenograft (Example 8)
Description: Animal Care: Five-weeks-old female athymic NCr-nu/nu mice were purchased from Harlan (Prattville, Ala.).
Tumor Model: Thirty-to-forty mg fragments of MX-1 human mammary tumor maintained in an in vivo passage were implanted sc in mice in the mammary fat pad using a 12-gauge trocar needle and allowed to grow. The day of tumor implantation was designated as day 0. […] A sufficient number of mice were implanted so that tumors in a weight range as narrow as possible were selected for the trial on the day of treatment initiation (day 6 after tumor implantation). Those animals selected with tumors in the proper size range were assigned to the various treatment groups so that the median tumor weights on the first day of treatment were as close to each other as possible (144-162 mg).
All dosing solutions were kept on ice after formulation and were administered within 30 min. All injections were administered on the basis of exact body weight with the injection volume being 0.2 mL/10 g body weight.
Drug Treatment: The experiment consisted of 16 treatment groups of eight mice per group and two vehicle-treated control groups with ten mice each for a total of 148 mice on the first day of treatment. All agents (and vehicle) were administered daily for five consecutive days (q1d×5). […] The control groups were treated either ip (group no. 1) or po (group no. 10) with the vehicle (saline).
Tumor Measurements and Body Weights: The sc tumors were measured and the animals were weighed twice weekly starting with the first day of treatment. Tumor volume was determined by caliper measurements (mm) and using the formula for an ellipsoid sphere: L×W^2/2=mm^3, where L and W refer to the larger and smaller perpendicular dimensions collected at each measurement. This formula is also used to calculate tumor weight, assuming unit density (1 mm^3=1 mg.).
Study Duration: The study was terminated 52 days after tumor implantation. Any animal that became moribund or whose tumor became ulcerated and reached 4,000 mg was euthanized prior to study termination.
Parameters Evaluated: Number of nonspecific deaths, number of partial and complete tumor regressions, number of tumor-free survivors, and the individual animals' times to reach two tumor mass doublings were determined. The median time to reach two tumor mass doubling in the treatment groups (T) and control group (C) was used in the calculation of the overall delay in the growth of the median tumor (T-C).
Statistical Analysis: The individual animal's time to reach two tumor mass doublings was used as the endpoint in a Student's t-test/Mann Whitney rank sum test in order to compare statistically the growth data between groups.

Compound: O=P1(N(CCCl)CCCl)NCCCO1 (stereo not drawn) [CPA, cyclophosphamide]
- effect of therapy on sarcoma growth [1]: no effect

Compound: O=P(O)(NCCCl)NCCCl [IPM, isophosphoramide mustard]
- maximum loss in mean body weight ([2]; ip q1d×5, 24 mg/kg/dose): 5%
- tumor growth delay (T-C) ([2]; ip q1d×5, 24 mg/kg/dose): 2.6 days
- maximum loss in mean body weight ([2]; ip q1d×5, 36 mg/kg/dose): 0%
- maximum loss in mean body weight ([2]; po q1d×5, 81 mg/kg/dose): 5%
- tumor growth delay (T-C) ([2]; po q1d×5, 81 mg/kg/dose): 4.0 days
- maximum loss in mean body weight ([2]; po q1d×5, 120 mg/kg/dose): 5%
- tumor growth delay (T-C) ([2]; po q1d×5, 120 mg/kg/dose): 4.6 days
- % Purity ([3]; 0.5 hours): 89.5%
- % Purity ([3]; 1.0 hours): 80.3%
- % Purity ([3]; 2.0 hours): 64.8%
- % Purity ([3]; 3.0 hours): 52.1%
- % Purity ([3]; reconstitution time 0 hours): 100.00%
- Current Stability Data Summary: No change in purity at [4]: −70° C., 2 years
- Solubility at 25° C. (saline) [5]: 14 mg/mL (≈ 63.3 mM)
- pH (pH (Example 16)): 3.02
- maximum loss in mean body weight (MX-1 human mammary tumor; ip q1d×5, 24 mg/kg/dose): 2%
- tumor growth delay (T-C) (MX-1 human mammary tumor; ip q1d×5, 24 mg/kg/dose): 0.3 days
- maximum loss in mean body weight (MX-1 human mammary tumor; ip q1d×5, 36 mg/kg/dose): 8%
- maximum loss in mean body weight (MX-1 human mammary tumor; po q1d×5, 81 mg/kg/dose): 9%
- tumor growth delay (T-C) (MX-1 human mammary tumor; po q1d×5, 81 mg/kg/dose): 2.3 days
- maximum loss in mean body weight (MX-1 human mammary tumor; po q1d×5, 120 mg/kg/dose): 18%
- tolerability (MX-1 human mammary tumor; po q1d×5, 120 mg/kg/dose): toxic
- deaths (MX-1 human mammary tumor; po q1d×5, 120 mg/kg/dose, eight mice per group): two deaths
